Test results: article PMC3742231 (International Journal of Molecular Sciences, 2013)
Read-outs that look alike come from different tables or passages of the source.

Legend:
[1] = target: T1, CYP1A2 (Homo sapiens, UniProt P05177); assay: biochemical
T1 sequence (P05177 1-516): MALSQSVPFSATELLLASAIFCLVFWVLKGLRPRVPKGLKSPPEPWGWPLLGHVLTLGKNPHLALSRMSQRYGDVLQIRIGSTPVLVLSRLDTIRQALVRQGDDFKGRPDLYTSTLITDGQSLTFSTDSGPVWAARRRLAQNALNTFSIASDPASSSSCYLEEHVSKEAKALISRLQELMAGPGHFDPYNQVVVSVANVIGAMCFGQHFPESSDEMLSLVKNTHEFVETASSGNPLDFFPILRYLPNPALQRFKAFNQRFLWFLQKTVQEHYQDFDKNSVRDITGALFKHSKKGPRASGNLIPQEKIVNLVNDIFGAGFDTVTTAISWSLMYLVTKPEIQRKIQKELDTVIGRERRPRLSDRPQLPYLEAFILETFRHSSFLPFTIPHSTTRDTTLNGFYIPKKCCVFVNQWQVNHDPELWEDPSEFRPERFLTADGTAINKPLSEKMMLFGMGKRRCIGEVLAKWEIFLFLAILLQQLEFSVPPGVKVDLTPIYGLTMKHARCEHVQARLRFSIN
Description: (§1) Human liver microsomes were prepared and pooled from ten human livers (HL20–24,28–32) as previously described. Human liver samples were obtained from the University Hospital of Oulu as surplus tissue from cadaver kidney transplant donors. The collection of surplus tissue was approved by the Ethics Committee of the Medical Faculty of the University of Oulu, Finland. All donors were Caucasians ranging in age from 21 to 62 years; four were female and six were male. Detailed information on each donor has been published previously. Protein concentrations were measured using the Bradford method.
(§2) In vitro inhibition of CYP isoforms was first assessed using the N-in-one approach (also called the cocktail approach). CYP-selective substrates and reactions are listed in Table 1; concentrations were roughly at or below the respective Michaelis-Menten coefficients. […] A Micromass LCT time-of-flight high-resolution mass spectrometer (Micromass Ltd., Manchester, UK) equipped with a Z-spray electrospray ionization source was used for the monitoring of CYP-selective reactions. Integrated mass chromatogram peak areas were normalized versus internal standards before comparing metabolites in different preparations. More details of the assay are available in previous publications.

[2] = target: CYP3A4 (Homo sapiens, UniProt P08684); assay: biochemical; details: human liver microsomes
Chain of CYP3A4 (P08684 whole entry): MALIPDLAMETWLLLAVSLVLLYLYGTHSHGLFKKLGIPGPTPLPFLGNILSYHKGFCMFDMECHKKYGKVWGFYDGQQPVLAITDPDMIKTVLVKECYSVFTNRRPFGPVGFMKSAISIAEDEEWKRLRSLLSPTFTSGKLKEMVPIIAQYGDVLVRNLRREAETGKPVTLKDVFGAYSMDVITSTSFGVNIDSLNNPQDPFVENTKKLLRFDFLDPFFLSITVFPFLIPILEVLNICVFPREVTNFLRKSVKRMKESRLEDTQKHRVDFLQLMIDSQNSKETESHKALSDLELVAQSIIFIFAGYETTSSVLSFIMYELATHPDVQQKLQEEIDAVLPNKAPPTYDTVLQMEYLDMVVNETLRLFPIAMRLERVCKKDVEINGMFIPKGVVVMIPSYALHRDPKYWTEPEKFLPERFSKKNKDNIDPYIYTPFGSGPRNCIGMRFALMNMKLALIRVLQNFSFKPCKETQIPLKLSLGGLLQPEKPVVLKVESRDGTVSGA
Description: as §1, §2

[3] = Overall safety in the three clinical studies; format: in vivo, human; details: healthy postmenopausal women, with and without ospemifene
Excerpt: All experiments with human subjects were based on voluntary informed consent and the clinical study protocols had appropriate ethical and regulatory approval. Subjects were asked to immediately report any significant adverse events (AEs) that occurred during the study; minor AEs were reported at clinic visits. AEs were coded and classified according to the Medical Dictionary for Regulatory Activities.

[4] = ref data on file, cited from earlier work

## OCCOc1ccc(/C(=C(/CCCl)c2ccccc2)c2ccccc2)cc1 [Ospemifene]
[1]
  IC50: > 100 µM
[2]; IC50, Midazolam 1′-hydroxylation, probe 0.4 μM
  IC50: > 100 µM
[2]; IC50, Omeprazole 3-hydroxylation, probe 2 μM
  IC50: 37.9 µM
[2]; IC50, Omeprazole sulfoxidation, probe 2 μM
  IC50: > 100 µM
[2]; IC50, Testosterone 6β-hydroxylation, probe 1 μM
  IC50: > 100 µM
[3]
  Tolerability: well tolerated
[4]; fluconazole pretreatment
  Change of serum concentrations of ospemifene: increased
[4]; ketoconazole pretreatment
  Change of serum concentrations of ospemifene: increased
[4]; omeprazole pretreatment
  Change of serum concentrations of ospemifene: minimally changed
[4]; rifampicin pretreatment
  Change of serum concentrations of ospemifene: reduced
